The source of these data is patent publication US10159697B2, “Methods for enhancing hematopoietic stem/progenitor cell engraftment” (CHILDREN'S MEDICAL CENTER CORPORATION, priority 2009, dated 2018).

The subject of this experiment is hematopoietic stem and/or progenitor cell engraftment. In words: adult zebrafish whole kidney marrow competitive transplantation assay. Format: in vivo. The following applies: for engraftment signal in pilot screen of 10 bioactive compounds: by four weeks post transplant, 10 recipients per treatment; for average G/R / percentage of positive recipients: green marrow cells incubated in vitro for 4 hrs, mixed with red marrow 1:4, 4 wpt, compared with DMSO control; for engraftment: in vitro incubation of green marrow with 10 μM dmPGE2 or 0.5 μM BIO at room temperature for 2-4 hours, by 4 weeks post transplant. The text has this: A transparent adult zebrafish, casper, was used as a transplantation recipient. Casper is a double homozygous pigment mutant for the nacre allele (devoid of melanocytes) and the roy allele (devoid of iridophores and reduced melanoyctyes), which allows direct visualization of GFP labeled hematopoietic stem cell homing and engraftment without killing the recipients. Two marrows are used: Tg(β-actin:GFP) and Red GloFish® respectively to compete with each other at varying ratios e.g., 1:4, which can generate robust competition between the two donors. In one embodiment, the red marrow is the competitor, as well as an internal control for the transplant. At different timepoints post-transplant, the recipients are anesthetized and two pictures for each recipient are taken by a fluorescence stereomicroscope with GFP/DsRed filters individually. Images are analyzed by software, such as ImageJ, which can quantify the GFP/DsRed fluorescence intensity. The relative engraftment efficiency of the manipulated green marrow is measured by the ratio of the GFP intensity over the DsRed intensity within the same kidney region after background subtraction (labeled as G/R).
A double-color labeled competitive transplantation assay was developed, as shown by the flow chart in FIG. 1A. GFP+ and DsRed2+ marrow cells are isolated from Tg(β-actin:GFP) and commercially available Red GloFish®. The two donor populations are mixed at a certain ratio and injected into sublethally irradiated casper recipients retro-orbitally. The DsRed2+ marrow is used as the competitor. Four weeks later, the engraftment is visualized by fluorescence dissection scope. Pictures of GFP and DsRed engraftment are taken for each recipient and analyzed by ImageJ. The kidney region is manually selected and the average fluorescence intensities of both green and red are measured within the same region. The average background intensity is measured in a region outside the fish, and subtracted from the kidney intensity. The calculation of the relative engraftment is shown by the equation in FIG. 1B.
Adult zebrafish donors are anaesthetized with 0.2% tricaine before blood and kidney collection. Peripheral blood is obtained from adult casper by cardiac puncture with micropipette tips coated with heparin and collected into 0.9×PBS containing 5% FCS. About 3-5 million red blood cells are harvested from one donor. To dissect whole kidney marrow (WKM), a ventral midline incision is made on the donor fish. Whole kidney is dissected out and placed into ice-cold 0.9×PBS containing 5% FCS. Single-cell suspensions are generated by aspiration followed by filtering through a […] nylon mesh filter into a 50 ml conical tube. The flow-though part is diluted with a final volume of 25 ml and centrifuged at 1,500 rpm for 8 minutes. The supernatant is discarded and the pellet cells are resuspended in 1 ml 0.9×PBS containing 5% FCS. The number of viable cells are counted with a hemocytometer. […] Finally, the peripheral blood and kidney marrow cells are centrifuged at 1,500 rpm for 8 minutes, resuspended in 0.9×PBS containing 5% FCS and mixed at a certain ratio and concentration. Casper recipients are anesthetized in tricaine. 4 μl of the cell suspension mixture described above is injected into the circulation retro-orbitally through a Hamilton syringe (26 s gauge, 10 μl volume). […] Transplanted recipients can be anesthetized in tricaine and visualized over time on a Zeiss Discovery V8 stereomicroscope with a 1.2× PlanApo lens and GFP/DsRed filters. Images are captured using AxioVision software and for each recipient, two images are taken with GFP or DsRed filter respectively. The images are all saved in .tif format and analyzed using ImageJ software.

Turning to `O=C1Nc2cc(Br)ccc2C1=C1Nc2ccccc2C1=NO` [BIO, 6-bromorindirubin-3′-oxime], the “engraftment signal in pilot screen of 10 bioactive compounds” value is “enhanced signal above the rest of the chemicals tested”, the “average G/R” value is “significantly increased”, the “percentage of positive recipients” value was “significantly increased” and the engraftment entry is given as “increase engraftment”. In addition, the “score in the competitive transplant model” value (from here on “score”) (at 3 months) is “score positive”. In addition, under “at 4 weeks”, the “score” value is “score positive”.

`CCCCC(C)(C)[C@H](O)/C=C/[C@H]1[C@H](O)CC(=O)[C@@H]1C/C=C\CCCC(=O)O` [dmPGE2, 16-,16-dimethyl Prostaglandin E2]: the “engraftment signal in pilot screen of 10 bioactive compounds” value is given as “enhanced signal above the rest of the chemicals tested”, the “average G/R” value is recorded as “significantly increased”, the “percentage of positive recipients” value was “significantly increased” and the engraftment result is “increase engraftment”. Also, the “score” value (at 3 months) is listed as “score positive”. In addition, the “score” value (at 4 weeks) was “score positive”.
